The source of these data is patent EP0250134B1, “Method for combating swine dysentery” (IMCERA Group Inc., priority 1986, dated 1987).

In brackets after ≈: the same amount, converted by molar mass. Counter-ions that a name gives are not always drawn. Like-named read-outs stand apart in the source and are kept apart here. A value given as a limit tells only on which side of the number the result lay.

This test deals with Treponema hyodysenteriae. Briefly: in vitro Streak Plate Test Method (inhibition endpoint / MIC on trypticase soy blood agar). The conditions noted are these: for MIC: Brachyspira hyodysenteriae, 48 h; for MIC / Inhibition Endpoints: first number = growth occurred, second = no growth, 48 hrs at 39°C anaerobic. The test is classed as cell-based. On the procedure: The following test procedure was used to evaluate the anti-Treponema hyodysenteriae activity of the compounds in the present invention. This test procedure establishes the lowest concentration of the compounds that will inhibit the growth on cultures of Treponema hyodysenteriae in an in vitro Streak Plate Test Method.
Procedure: Stock solutions containing 10,000, 1,000, 100, 10, 1.0, and 0.1, micrograms per milliliters of the compound to be tested were prepared. The final dilutions to establish the test concentrations in the media were made by placing the correct volume of stock solution in a petri dish, adding the media (trypticase soy blood agar), and mixing before the media solidified. After the media solidified, the test cultures of Treponema hyodysenteriae were streaked onto the surface of the agar. Petri dishes containing media without test samples were also set up as culture controls and are inoculated in the same manner. All inoculated plates were incubated at 39°C in anaerobic jars for 48 hrs. Inhibition endpoints were then determined by observing the test plates for growth or no growth of the test cultures at the various concentrations of the compounds. If the culture growth occured at one concentration but not at the next higher concentration, the inhibitory endpoint or MIC (Minimum Inhibitory Concentration) was considered the higher concentration.
Referring to Table 1, the culture numbers refer to field isolate strains of Treponema hyodysenteriae. These field isolates were isolated in Illinois, Iowa, and Nebraska. The numbers giving the results in the Table are read as follows: the first number for each isolate and compound tested corresponds to the concentration in micrograms per milliliter where growth occurred and the second number corresponds to the concentration in micrograms per milliliter where no growth occurred.

Setting [1] is: Culture No. 8064 (field isolate).
Where [2] appears, read: Culture No. 8072 (field isolate).
Where [3] appears, read: Culture No. 8076 (field isolate).
Setting [4] is: Culture No. 8080 (field isolate).
Setting [5] is: Culture No. 8087 (field isolate).
Where [6] appears, read: Culture No. 8098 (field isolate).
Where [7] appears, read: Culture No. 8125 (field isolate).
[8] abbreviates: Culture No. B-100 (field isolate).
The mark [9] stands for this setting: Culture No. B-140 (field isolate).

As to `CCC(C(=O)C(C)C(O)C(C)CCc1ccc(C)c(O)c1C(=O)O)C1OC(CC)(C2CCC(O)(CC)C(C)O2)CC1C` (centres unmarked) [Lasalocid Na, reference compound], the MIC lay within 1 to 5 µg/mL (≈ 1.69 to 8.46 µM) (Culture No. 8064 (field isolate), read-out: Inhibition Endpoints); 1 to 5 µg/mL (≈ 1.69 to 8.46 µM) (Culture No. 8072 (field isolate), read-out: Inhibition Endpoints); 1 to 5 µg/mL (≈ 1.69 to 8.46 µM) (Culture No. 8076 (field isolate), read-out: Inhibition Endpoints); 0.5 to 1 µg/mL (≈ 0.846 to 1.69 µM) (Culture No. 8080 (field isolate), read-out: Inhibition Endpoints); 1 to 5 µg/mL (≈ 1.69 to 8.46 µM) (Culture No. 8087 (field isolate), read-out: Inhibition Endpoints); 1 to 5 µg/mL (≈ 1.69 to 8.46 µM) (Culture No. 8098 (field isolate), read-out: Inhibition Endpoints). Besides, the MIC (Culture No. 8125 (field isolate), read-out: Inhibition Endpoints) was 1 to 5 µg/mL (≈ 1.69 to 8.46 µM); the MIC (Culture No. B-100 (field isolate), read-out: Inhibition Endpoints) lay within 0.5 to 1 µg/mL (≈ 0.846 to 1.69 µM); the MIC (Culture No. B-140 (field isolate), read-out: Inhibition Endpoints) is 1 to 5 µg/mL (≈ 1.69 to 8.46 µM).
With `CCC[C@@H]1C[C@@H](C(=O)N[C@@H]([C@H]2O[C@H](SC)[C@H](O)[C@@H](O)[C@H]2O)[C@@H](C)O)N(C)C1` [Lincomycin HCL, reference compound], the MIC (read-out: Inhibition Endpoints, Culture No. 8064 (field isolate)) fell in the range of 10 to 50 µg/mL; the MIC (read-out: Inhibition Endpoints, Culture No. 8072 (field isolate)) was 10 to 50 µg/mL; the MIC (read-out: Inhibition Endpoints, Culture No. 8076 (field isolate)) lay in the range of 10 to 50 µg/mL; the MIC (read-out: Inhibition Endpoints, Culture No. 8080 (field isolate)) fell in the range of 10 to 50 µg/mL; the MIC (read-out: Inhibition Endpoints, Culture No. 8087 (field isolate)) was 10 to 50 µg/mL; the MIC (read-out: Inhibition Endpoints, Culture No. 8098 (field isolate)) is 10 to 50 µg/mL. Also, the MIC (read-out: Inhibition Endpoints, Culture No. 8125 (field isolate)) was 10 to 50 µg/mL; the MIC (read-out: Inhibition Endpoints, Culture No. B-100 (field isolate)) fell in the range of 1 to 5 µg/mL; the MIC (read-out: Inhibition Endpoints, Culture No. B-140 (field isolate)) lay within 0.05 to 0.1 µg/mL.
Carriomycin Na [reference compound]: the “Inhibition Endpoints” value is “.01-.05 µgs/ml” under setting [1]; “<.01 µgs/ml” under setting [2]; “<.01 µgs/ml” under setting [3]; “.01-.05 µgs/ml” under setting [4]; “.01-.05 µgs/ml” under setting [5]; “<.01 µgs/ml” under setting [6]. In addition, the “Inhibition Endpoints” value under setting [7] is “<.01 µgs/ml”. Moreover, the “activity compared to the controls” value (summary of Table 1) is “comparable activity”.
Regarding Co Lysocellin, the “Inhibition Endpoints” value is “.05-.1 µgs/ml” under setting [1]; “<.01 µgs/ml” under setting [2]; “.05-.1 µgs/ml” under setting [3]; “.05-.1 µgs/ml” under setting [4]; “.05-.1 µgs/ml” under setting [5]; “.05-.1 µgs/ml” under setting [6]. For the same compound, the “Inhibition Endpoints” value reads like this: under setting [7], “<.01 µgs/ml”; under setting [8], “<.01 µgs/ml”; under setting [9], “<.01 µgs/ml”.
With Cu Lysocellin, the “Inhibition Endpoints” value under setting [1] is reported as “.1-.5 µgs/ml”; the “Inhibition Endpoints” value under setting [2] is listed as “.05-.1 µgs/ml”; the “Inhibition Endpoints” value under setting [3] is “.05-.1 µgs/ml”; the “Inhibition Endpoints” value under setting [4] is “.1-.5 µgs/ml”; the “Inhibition Endpoints” value under setting [5] is reported as “.1-.5 µgs/ml”; the “Inhibition Endpoints” value under setting [6] is “.05-.1 µgs/ml”. The “Inhibition Endpoints” value is “.1-.5 µgs/ml” under setting [7], “.1-.5 µgs/ml” under setting [8] and “.1-.5 µgs/ml” under setting [9].
As for Lysocellin Free Acid, the “Inhibition Endpoints” value reads like this: under setting [1], “.1-.5 µgs/ml”; under setting [2], “.01-.05 µgs/ml”; under setting [3], “<.01 µgs/ml”; under setting [4], “.1-.5 µgs/ml”; under setting [5], “.05-.1 µgs/ml”; under setting [6], “.05-.1 µgs/ml”. The “Inhibition Endpoints” value reads like this: under setting [7], “.01-.05 µgs/ml”; under setting [8], “.01-.05 µgs/ml”; under setting [9], “.01-.1 µgs/ml”.
On to Lysocellin Na, for which the “Inhibition Endpoints” value runs as follows: under setting [1], “.1-.5 µgs/ml”; under setting [2], “.1-.5 µgs/ml”; under setting [3], “.1-.5 µgs/ml”; under setting [4], “.1-.5 µgs/ml”; under setting [5], “.1-.5 µgs/ml”; under setting [6], “.1-.5 µgs/ml”. In addition, the “Inhibition Endpoints” value was “.1-.5 µgs/ml” under setting [7], “.1-.5 µgs/ml” under setting [8] and “.1-.5 µgs/ml” under setting [9].
Take Mn Lysocellin: the “Inhibition Endpoints” value is “.1-.5 µgs/ml” under setting [1]; “.1-.5 µgs/ml” under setting [2]; “.1-.5 µgs/ml” under setting [3]; “.1-.5 µgs/ml” under setting [4]; “.1-.5 µgs/ml” under setting [5]; “.1-.5 µgs/ml” under setting [6]. Besides, the “Inhibition Endpoints” value under setting [7] is recorded as “.1-.5 µgs/ml”, the “Inhibition Endpoints” value under setting [8] was “.1-.5 µgs/ml” and the “Inhibition Endpoints” value under setting [9] was “.1-.5 µgs/ml”.
